Read-outs that look alike come from different tables or passages of the source.
Tests used:
human POR [1] = biological target: T1, human POR (Homo sapiens, UniProt A0A9L9PY49); assay: biochemical; set-up: POR proteoliposome reduction of cytochrome c, MTT (absorbance) or resazurin (fluorescence), normalized to DMSO control; conditions: Liposomes=Liposomes, electron acceptor as given
T1 construct: full-length wild type in pET22b, expressed in E. coli BL21(DE3); bacterial membranes reconstituted in DLPC/DLPG liposomes without further purification, or used as microsomes
T1 sequence (A0A9L9PY49 1-680): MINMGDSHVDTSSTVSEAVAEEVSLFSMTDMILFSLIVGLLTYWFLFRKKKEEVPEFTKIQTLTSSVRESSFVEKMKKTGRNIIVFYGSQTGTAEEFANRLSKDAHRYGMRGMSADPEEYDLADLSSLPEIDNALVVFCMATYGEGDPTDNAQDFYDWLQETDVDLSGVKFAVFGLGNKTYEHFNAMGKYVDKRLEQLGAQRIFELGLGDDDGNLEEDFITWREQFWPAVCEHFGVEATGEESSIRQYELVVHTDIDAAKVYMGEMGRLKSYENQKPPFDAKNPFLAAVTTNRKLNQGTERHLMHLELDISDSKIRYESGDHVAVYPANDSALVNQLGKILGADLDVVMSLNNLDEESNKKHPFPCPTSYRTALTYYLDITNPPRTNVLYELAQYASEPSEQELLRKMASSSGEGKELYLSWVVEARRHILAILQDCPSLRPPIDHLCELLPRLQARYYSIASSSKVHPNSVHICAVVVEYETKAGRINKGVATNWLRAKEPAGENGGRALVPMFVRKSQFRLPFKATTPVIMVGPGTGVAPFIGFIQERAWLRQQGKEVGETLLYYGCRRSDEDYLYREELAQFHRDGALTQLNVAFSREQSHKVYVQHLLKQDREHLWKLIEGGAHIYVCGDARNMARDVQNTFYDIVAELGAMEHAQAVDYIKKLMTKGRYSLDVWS
Description: (§1) Using Cytc, MTT or RS as electron acceptors the change in absorbance (550 nm for Cytc and 610 nm for MTT) or emission (570 nm excitation, 585 nm emission for RS) was monitored as a function of time. Cytc and RS concentrations were both close to KM of the given electron acceptor, while MTT and NADPH were in excess amounts. Concentrations were 40 μM Cytc, 10 μM RS, 500 μM MTT and 100 μM NADPH unless otherwise stated. POR activity was extracted from the slope of the linear region of each trace. Michaelis–Menten kinetics and IC50 curves were performed under identical conditions using relevant substrate and ligand concentrations. All measurements were repeated at least three times and subsequently normalized to DMSO control measurements. […] Fluorescence intensities of resorufin in the presence of rifampicin were corrected according to a linear calibration curve (see Supplementary Fig. 7). Given that point-mutations in human POR can lead to altered specificity towards CYP isoforms[4],[19], we tested whether small-molecule ligands can bias the specificity of human POR to reduce diverse electron acceptors. […] (MTT)[32] (Fig. 2A). Each of the assays relies on spectral changes of the electron acceptor upon reduction by POR and thus directly reports on POR activity towards reducing the specific redox partner (see Supplementary Methods for details). Being comparative these assays exclude artefacts that may originate from potential FMN loss. […] POR plays an omnipotent role as an electron donor to microsomal CYPs in all eukaryotes and serves as a key metabolic hub in plants as well as humans. To test whether the effect of small-molecule ligand binding to POR is an omnipotent phenomenon underlying the regulation of POR in organisms from different kingdoms, we performed binding assays based on intrinsic fluorescence quenching and dose-response experiments on POR2b from the crop plant Sorghum bicolor (SbPOR2b) in proteoliposomes (Fig. 3A, B, Supplementary Fig. 6 and Supplementary Table 3).

SbPOR2b [2] = biological target: T2, SbPOR2b (Sorghum bicolor, UniProt C5YJG8); assay: cytochrome c reduction, absorbance […] nm, Hill fit; type: biochemical
T2 construct: gene CPR; full-length, expressed in E. coli NiCo21(DE3) from pET52b, purified on 2',5'-ADP Sepharose and Q-sepharose, in DLPC/DLPG proteoliposomes; mutant in lipid nanodiscs
T2 sequence (C5YJG8 whole entry): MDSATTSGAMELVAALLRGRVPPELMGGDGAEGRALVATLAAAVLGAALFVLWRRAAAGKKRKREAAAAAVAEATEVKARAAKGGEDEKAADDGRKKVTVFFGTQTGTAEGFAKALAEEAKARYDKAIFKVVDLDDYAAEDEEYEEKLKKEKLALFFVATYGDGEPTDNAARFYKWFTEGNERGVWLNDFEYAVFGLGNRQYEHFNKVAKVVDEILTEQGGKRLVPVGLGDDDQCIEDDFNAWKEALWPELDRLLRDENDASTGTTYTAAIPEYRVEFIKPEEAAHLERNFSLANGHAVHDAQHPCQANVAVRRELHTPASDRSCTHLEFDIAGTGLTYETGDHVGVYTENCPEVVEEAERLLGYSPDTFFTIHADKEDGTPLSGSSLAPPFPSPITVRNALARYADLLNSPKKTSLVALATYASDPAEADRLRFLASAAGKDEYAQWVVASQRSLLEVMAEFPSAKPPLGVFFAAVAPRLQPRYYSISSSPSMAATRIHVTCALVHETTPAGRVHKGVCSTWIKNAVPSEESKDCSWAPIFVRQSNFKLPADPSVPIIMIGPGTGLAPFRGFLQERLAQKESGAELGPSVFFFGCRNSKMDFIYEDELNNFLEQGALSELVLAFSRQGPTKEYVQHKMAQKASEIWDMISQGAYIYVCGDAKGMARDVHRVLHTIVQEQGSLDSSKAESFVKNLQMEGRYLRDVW

SbPOR2b [3] = biological target: T2, SbPOR2b; assay: resazurin reduction, fluorescence, Hill fit; type: biochemical
Description: resazurin reduction, fluorescence, Hill fit on SbPOR2b | activity decrease in Cytc reduction and increase in RS reduction

in vitro = conditions: human, nci-h295r cells
Description: We tested the efficiency of the three ligands to elicit a physiological response on steroidogenic CYP activities in cells (Fig. 5A, see Supplementary Methods, Supplementary Fig. 14 and Supplementary Table 4 for all data and number of biological replicates). The 3 tested ligands are not known to interact directly with CYP17, CYP19 or CYP21, albeit rifampicin and [compound left out] are known to interact with liver CYPs like CYP2B6[27] and CYP3A4[28]. Using a human adrenocortical cell line (NCI-H295R) we tested the effect of ligands on CYP17A1 and CYP21A2[59],[60] activities at 10 and 100 μM concentrations (Fig. 5A). Using radiolabeled substrates, we were able to quantify the steroid hormone production of CYP17A1 and CYP21A2 and its remodeling by POR ligands (see Supplementary Methods for details). […]. Rifampicin caused no significant effect on CYP17A1 activity, but reduced CYP21A2 activity at 100 μM (73 ± 4% of control; see Fig. 5A and Supplementary Fig. 14). […]. […]. […] (91 ± 12% of control). Specific inhibition of CY Fig. 5 Biased metabolism: small-molecule ligands bias steroidogenic CYP-activities in human cells and microsomes. A A human adrenocortical cell line (NCI-H295R) was used to assess the effect of small-molecule ligands on steroidogenic CYP17A1 and CYP21A2 hydroxylase activity, and CYP17A1 lyase activity, using radiolabeled substrates (see Supplementary Methods and Supplementary Table 4). Cell viability was assessed based on MTT reduction. […]. The cells display increased MTT reduction indicating increased reductase activity. No significant effects on CYP17A1 activities are observed. [compound left out] causes a significance increase in CYP17A1 lyase and less significant towards 17-OHase and 21A2 activities, while MTT reduction decreases slightly. [compound left out] causes inhibition of both CYP17A1 and CYP21A2 activities. B Abiraterone was used as a control inhibitor of CYP17A1 and CYP21A2 in H295R cells. C The effect of ligands on CYP19A1 activity was assessed on microsomes from a human choriocarcinoma cell line (JEG3). […]. A, C Error bars represent mean ± SD of 3–4 biological replicates normalized to DMSO controls with propagated error. See Supplementary Fig. 14 for raw data and Supplementary Table 4 for exact value of n for each experimental condition. Note, overlapping data points appear shaded. Level of significance is determined by one-way ANOVA and Tukey’s HSD test correcting for multiple comparisons (*p < 0.05; **p < 0.01; ***p < 0.005; see Supplementary Methods for details). Source data are provided as a Source Data file.

human POR [4] = biological target: T1, human POR; assay: cytochrome c reduction, absorbance […] nm; type: biochemical; conditions: read-out: % of control at 100 μM
SbPOR2b [5] = biological target: T2, SbPOR2b; assay: cytochrome c reduction, absorbance […] nm, Hill fit; type: biochemical; remark: listed apart in the source
SbPOR2b [6] = biological target: T2, SbPOR2b; assay: biochemical; set-up: POR proteoliposome reduction of cytochrome c, MTT (absorbance) or resazurin (fluorescence), normalized to DMSO control; conditions: Liposomes=Liposomes, electron acceptor as given
Description: as §1

SbPOR2b [7] = biological target: T2, SbPOR2b; assay: resazurin reduction, fluorescence, Hill fit; type: biochemical; remark: listed apart in the source
Description: resazurin reduction, fluorescence, Hill fit on SbPOR2b | while marginally reducing the capacity in the RS assay

[8] = read-out: % of control remaining, Cytochrome C=Cytochrome C
[9] = read-out: % of control remaining, Cytochrome C=MTT
[10] = read-out: % of control remaining, Cytochrome C=Resazurin
[11] = Cytochrome C=Cytochrome C, read-out: % of control remaining
[12] = Cytochrome C=Resazurin, read-out: % of control remaining
[13] = Cytochrome C=MTT, read-out: % of control remaining
[14] = Assay=MTT cell viability, DMSO (v/v %)=1, read-out: % viability

| remaining activity at 10 µM (human POR [1]; [8]) [%] | remaining activity at 100 µM (human POR [1]; [8]) [%] | remaining activity at 10 µM (human POR [1]; [9]) [%] | remaining activity at 10 µM (human POR [1]; [10]) [%] | remaining activity at 100 µM (human POR [1]; [10]) [%] | SMILES | other results |
| --- | --- | --- | --- | --- | --- | --- |
| 95.6 | 106 | 85.1 | 102 | 102 | CCCCc1oc2ccccc2c1C(=O)c1cc(I)c(OCCN(CC)CC)c(I)c1 [Amiodarone] |  |
| 110 | 117 | 96.9 | 107 | 112 | CN/C(=N\CCSCc1nc[nH]c1C)NC#N [Cimetidine] |  |
| 101 |  | 110 | 53.7 |  | CO[C@@]12[C@H](COC(N)=O)C3=C(C(=O)C(C)=C(N)C3=O)N1C[C@@H]1N[C@@H]12 [Mitomycin C] |  |
| 108 | 118 | 88.4 | 96.9 | 95.9 | CC(C)c1nc(CN(C)C(=O)N[C@H](C(=O)N[C@@H](Cc2ccccc2)C[C@H](O)[C@H](Cc2ccccc2)NC(=O)OCc2cncs2)C(C)C)cs1 [Ritonavir] |  |
|  |  |  |  |  | O=P1(N(CCCl)CCCl)NCCCO1 (centres unmarked) [cyclophosphamide] | IC50 (SbPOR2b [2]): 228 ± 208 µM; EC50 (SbPOR2b [3]): 159 ± 136 µM; viability at 10 µM (in vitro): 87.9%; viability at 100 µM (in vitro): 81.4% |
|  |  |  |  |  | N#C[C@@H](O[C@@H]1O[C@H](CO)[C@@H](O)[C@H](O)[C@H]1O)c1ccc(O)cc1 [dhurrin] | remaining activity at 100 µM (human POR [4]): 48 ± 9%; EC50 (SbPOR2b [5]): 21 ± 12 µM; viability at 10 µM (in vitro): 93.6%; viability at 100 µM (in vitro): 88.1%; remaining activity at 10 µM (SbPOR2b [6]; [11]): 128%; remaining activity at 100 µM (SbPOR2b [6]; [11]): 156%; remaining activity at 100 µM (SbPOR2b [6]; [12]): 236%; remaining activity at 10 µM (human POR [1]; [13]): 87.7%; remaining activity at 100 µM (human POR [1]; [13]): 95.9%; remaining activity at 10 µM (human POR [1]; [12]): 105%; remaining activity at 100 µM (human POR [1]; [12]): 81.7% |

| SMILES | remaining activity at 10 µM (human POR [1]; [8]) [%] | remaining activity at 100 µM (human POR [1]; [8]) [%] | remaining activity at 10 µM (human POR [1]; [9]) [%] | remaining activity at 10 µM (human POR [1]; [10]) [%] | remaining activity at 100 µM (human POR [1]; [10]) [%] | other results |
| --- | --- | --- | --- | --- | --- | --- |
| CC(=O)CC(c1ccccc1)c1c(O)c2ccccc2oc1=O (centres unmarked) [Warfarin] | 102 |  | 118 | 96.2 |  |  |
| CO[C@H]1/C=C/O[C@@]2(C)Oc3c(C)c(O)c4c(O)c(c(/C=N/N5CCN(C)CC5)c(O)c4c3C2=O)NC(=O)/C(C)=C\C=C\[C@H](C)[C@H](O)[C@@H](C)[C@@H](O)[C@@H](C)[C@H](OC(C)=O)[C@@H]1C [rifampicin] | 113 |  | 95.7 | 132 | 312 | remaining activity at 100 µM (human POR [4]): 14 ± 5%; IC50 (SbPOR2b [7]): 18 ± 9 µM; EC50 (SbPOR2b [5]): 9 ± 8 µM; viability at 10 µM (in vitro; [14]): 94%; viability at 100 µM (in vitro; [14]): 116%; remaining activity at 10 µM (SbPOR2b [6]; [8]): 140%; remaining activity at 100 µM (SbPOR2b [6]; [8]): 179%; remaining activity at 10 µM (SbPOR2b [6]; [10]): 102%; remaining activity at 100 µM (SbPOR2b [6]; [10]): 85%; remaining activity at 100 µM (human POR [1]; [9]): 122% |

From publication PMC8050233, “Biased cytochrome P450-mediated metabolism via small-molecule ligands binding P450 oxidoreductase” (Nature Communications, 2021)
